Columns and labels:
[1] = tested on: FOXM1B/C transcript variants; test: FOXM1B/C mRNA expression in human iPSCs (RT-qPCR); type: cell-based; settings: 24 h
Experimental: FIG. 5A-FIG. 5B: Effect of RO7034067 on FOXM1 mRNA expression levels in human and Cynomolgus monkey iPSCs • Cells were treated with RO7034067 for 24 hours, and FOXM1 B/C transcript variants were analyzed by RT-PCR. Data represent means±SEM of 3 repetitions and are expressed as fold change vs. controls. IC50 values are indicated. FIG. 5A. human iPSCs. FIG. 5B. Cynomolgus monkey iPSCs
Human iPSCs (hIPS_Neo_Clone_1) were cultivated in mTeSR1 (Stem Cell Technologies) as standard medium and Cynomolgus monkey iPSCs (cips_54-1285_cFIB_Clone_8) in MT medium supplemented with 10 ng/ml ActivinA and 15 ng/ml FGF2.
For gene expression profiling, stem cells were detached with Accutase (Stem Cell Technologies) and plated in 12 well plates coated with Matrigel (BD Biosciences) in the respective standard medium supplemented with 10 μM Rock inhibitor Y-27632 (Sigma-Aldrich). In order to obtain enough RNA, monkey stem cells were seeded at 15000 cells/cm2 and human stem cells were seeded at 40000 cells/cm2 24 h prior to treatment. Thereafter stem cells were treated for 24 h with serial dilutions (1:5) of test items in fresh, pre-warmed medium in a concentration range from 0.64 nM till ˜10 μM. To stop the experiment, cells were lysed in QiaGen's lysis buffer RLT with beta-mercaptoethanol.
Human and Cynomolgus monkey mRNA expression was measured with customized primer and FAM fluorescently-labeled Universal Probe Library (UPL) probes from Roche or probes from Microsynth containing a 5′ FAM label and a 3′ terminal BlackHole Dark Quencher 1 (BHQ1). The sequences of the primer and FAM labeled probes are listed as follows:
For quantitative Real-Time-PCR, cells cultivated in a 12 well plate and treated with Roche-compounds for 24 h were lysed in 500 ul/well of QiaGen's lysis buffer RLT with beta-mercaptoethanol. Total RNA was extracted with the RNeasy Mini kit combined with DNase treatment on a solid support. RNA integrity was controlled by using Nanodrop absorption spectroscopy and microfluidic capillary array electrophoresis profiles from an Agilent Bioanalyzer
2100. Between 300 ng to 800 ng of total RNA were reverse transcribed with oligo-dT primer and spiked MS2 RNA at 10 ng/uL final concentration using the Transcriptor First Strand cDNA Synthesis Kit (Roche Applied Science #04379012001) following the manufacturer's recommended protocol. The quantitative PCR was performed on a LightCycler 480 qPCR machine using 67.5 ng total RNA derived cDNA as input in a 20 μl mixture containing 1× LightCycler 480 Probes Master, 0.4 μM forward and reverse primers, and 0.2 μM FAM labeled hydrolysis probe. The temperature program consisted of pre-incubation at 95° C. for 10 min, followed by 50 cycles of amplification (95° C. for 10 s, 60° C. for 30 s, 72° C. for 5 s). Negative control reactions were conducted in the absence of cDNA template to confirm absence of cDNA contamination in the master mix. Measurements of Ct (cycle threshold)-values were performed for each sample-mRNA combination. Using the 2-ΔΔCt method (Livak K J et al. Method. Methods. 2001; 25(4):402-8), the data are presented as the fold change in gene expression normalized to an endogenous reference gene and relative to the untreated control. To derive individual ΔCt values, the Ct value for each target mRNA of each sample was normalized to the Ct value of the endogenous reference mRNA of GAPDH (glyceraldehyde-3-phosphate dehydrogenase). The […] was calculated by subtracting the ΔCt value of the vehicle-control group from the respective ΔCt value of each treatment group. Resultant expression ratios (2-ΔΔCt) mirrored treatment-related mRNA expression changes versus vehicle-controls. […] The model to derive the IC50 assumes that the dose response curves has a standard slope, equal to a Hill slope (or slope factor) of −1.0. Model equation: Y=Bottom+(Top-Bottom)/(1+10^((X-Log IC50))); with Y being the response data and X being log 10 concentrations in μM.

FMO3 = molecular target: T1, FMO3 (Homo sapiens, UniProt P31513); test: Elimination pathway; type: in vitro ADME
T1 sequence (P31513 1-532): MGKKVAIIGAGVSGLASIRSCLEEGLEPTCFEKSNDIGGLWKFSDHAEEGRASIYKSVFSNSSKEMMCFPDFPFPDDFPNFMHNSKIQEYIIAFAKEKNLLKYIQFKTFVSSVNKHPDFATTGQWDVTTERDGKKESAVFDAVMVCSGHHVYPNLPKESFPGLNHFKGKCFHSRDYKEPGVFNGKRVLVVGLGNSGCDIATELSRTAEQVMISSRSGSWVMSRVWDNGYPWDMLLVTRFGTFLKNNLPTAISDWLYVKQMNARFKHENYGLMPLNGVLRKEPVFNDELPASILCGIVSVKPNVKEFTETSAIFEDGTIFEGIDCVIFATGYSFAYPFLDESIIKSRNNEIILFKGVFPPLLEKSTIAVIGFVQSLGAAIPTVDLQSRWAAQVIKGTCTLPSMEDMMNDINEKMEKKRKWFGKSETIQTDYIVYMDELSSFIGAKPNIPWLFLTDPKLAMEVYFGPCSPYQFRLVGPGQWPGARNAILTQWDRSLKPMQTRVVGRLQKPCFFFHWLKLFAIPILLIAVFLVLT

Question: Which “Mean FOXM1B/C relative mRNA expression (2^-ΔΔCt vs control)” value ([1]; 0.64 nM) does the source give for Cc1cn2nc(-c3cc(=O)n4cc(N5CCNC6(CC6)C5)ccc4n3)cc(C)c2n1 [RO7034067, 7-(4,7-diazaspiro[2.5]octan-7-yl)-2-(2,8-dimethylimidazo[1,2-b]pyridazin-6-yl)pyrido[1,2-a]pyrimidin-4-one] here?
Answer: 1.115

Question: What about the “Mean FOXM1B/C relative mRNA expression (2^-ΔΔCt vs control)” value ([1]; 3.2 nM) of the same compound?
Answer: 1.032

Question: What about the “Mean FOXM1B/C relative mRNA expression (2^-ΔΔCt vs control)” value ([1]; 16 nM) of the same compound?
Answer: 0.898

Question: And the “Mean FOXM1B/C relative mRNA expression (2^-ΔΔCt vs control)” value ([1]; 80 nM)?
Answer: 0.748

Question: What about the “Mean FOXM1B/C relative mRNA expression (2^-ΔΔCt vs control)” value ([1]; 400 nM) of the same compound?
Answer: 0.178

Question: What about the “Mean FOXM1B/C relative mRNA expression (2^-ΔΔCt vs control)” value ([1]; 2000 nM) of the same compound?
Answer: 0.185

Question: And the “Mean FOXM1B/C relative mRNA expression (2^-ΔΔCt vs control)” value ([1]; 10000 nM)?
Answer: 0.102

Question: What about the IC50 ([1]; iPSC, read-out: IC50 on expression levels of FOXM1B/C) of the same compound?
Answer: 114 nM

Question: And the elimination pathway (FMO3)?
Answer: FMO3 participates on the elimination path way

Source: patent US12350273B2, “Treatment of SMA” (Hoffmann-La Roche Inc., priority 2017, dated 2025)
